Results from patent US20020155479A1, “Expression cloning method” (Whitehead Institute for Biomedical Research, priority 1999, published 2002).

Columns and labels:
[1] = test system: GLUT4 at the plasma membrane of CHO cells; assay: FACS-based assay of the proportion of GLUT4 reporter at the cell surface, CHO cells; set-up: species or system Chinese Hamster
Method: (§1) Confluent cells were reseeded on the indicated day of differentiation to six well plates (Coming, Costar #3506) one day before use in experiments, and were starved in DMEM without fetal bovine serum for at least 3 hours before insulin stimulation. Insulin was generally used at 160 nM; occasionally it was used at 80 nM or 200 nM and no difference was noted between these concentrations in either 3T3-L1 or CHO cells. Insulin was added directly to the wells from a 100×stock. After treatment in the presence or absence of insulin for the times indicated in each figure, cells were quickly transferred to […] and washed with cold phosphate buffered saline (PBS) containing 0.9 mM Ca^++ and 0.5 mM Mg^++ (PBS++). All subsequent steps were carried out at 4° C., and staining of externalized myc epitope was done on adherent cells. Cells were incubated with a 1:200 dilution of anti-myc (9E10) ascites or using 25 μg/ml purified 9E10 in PBS++, 2% bovine serum albumin (BSA), 4% donkey serum for 1.5 hours. Cells were then washed twice in PBS++, for 5 minutes each time. They were then incubated 45 minutes in 12.5 to 25 μg/ml R-phycoerythrin conjugated donkey F(ab′)2 anti-mouse IgG secondary antibody, diluted in PBS++, 2% BSA, 4% donkey serum. Cells were rinsed twice in PBS++, then washed three times in PBS++ for 10 minutes each time, and were resuspended by gentle scraping in PBS++, 2% BSA or PBS++, 5% fetal bovine serum for flow cytometry. For experiments involving insulin removal, cells were chilled as above after insulin stimulation, then washed twice with 5 mM sodium acetate, 150 mM NaCl, pH 4.0 (Kao, A. W., et al., 1998, J Biol Chem 273:25450-7; Yang., J., et al., 1992, J Biol Chem 267:10393-9). Cells were rewarmed in 37° C. DMEM for the times indicated, restimulated or not with insulin, and then returned to 4° C. and chilled with cold PBS++ before staining as above.
(§2) Flow cytometry was done on FACScan or FACSCalibur cytometers (Becton-Dickinson). Appropriate compensation between the FL1 and FL2 channels was set using uninfected (GFP-negative) cells or cells stained with PE only (e.g. using a PE-conjugated anti-transferrin receptor antibody; Pharmingen). […] For each sample, data from ≧10,000 cells were collected. Median fluorescence intensities were used for quantification, since this measure of central tendency is least sensitive to outliers. For each sample, the PE and GFP fluorescence specifically attributable to the presence of the GLUT4 reporter were determined by subtracting background fluorescences, measured using control unstained cells and cells not expressing the reporter, respectively. These control cells were treated with the same conditions (e.g., type of serum and media, amino acid concentrations) used for the experimental cells. The ratio of fluorescence intensities plotted on the vertical axes of many figures is a relative, not absolute, measure of the proportion of GLUT4 at the cell surface. The scales are numbered arbitrarily and are not intended to permit comparison in absolute terms of data obtained in different experiments. In some of the kinetic studies (FIG. 26), the data were subjected to a simple smoothing operation. This consisted of calculating (0.25ra1—0.5rc+0.25rc+1), where r is the ratio of specific fluorescences for timepoint t. This calculated value was used for timepoints t=2 to ten−1, where n is the total number of timepoints. For the last time point t=n, (0.33rc1+0.67r1) was calculated. Basal values of r (r1) were unchanged.
To measure GLUT4 trafficking at the surface of CHO cells, CHO cells expressing the murine ecotropic retroviral receptor were infected with a retrovirus carrying the GLUT4 reporter, and FACS was utilized to isolate cells falling within a narrow range of GFP fluorescence intensities. Upon insulin stimulation of these cells, externalization of the GLUT4 reporter was again noted, as detected by flow cytometry. […]

[2] = test system: GLUT4 at the plasma membrane of 3T3-L1 cells; assay: FACS-based assay of the proportion of GLUT4 reporter at the cell surface, 3T3-L1 cells; set-up: species or system murine
Method: as §1, §2
To assay changes in the proportion of GLUT4 present at the plasma membrane, a cDNA encoding a GLUT4 reporter protein was constructed. This protein contains seven c-myc epitope tags in the first exofacial loop of GLUT4, and GFP fused in-frame at the carboxy terminus. […] An anti-myc monoclonal antibody, followed by a phencoerythrin (PE)-conjugated secondary antibody, was used to detect reporter protein present at the surface of living cells. […]

[3] = test system: GLUT4 at the cell surface of NIH 3T3 cells; assay: FACS-based assay of the proportion of GLUT4 reporter at the cell surface, NIH 3T3 cells; conditions: NIH 3T3 cells expressing the GLUT4 reporter
Method: Confluent cells were reseeded on the indicated day of differentiation to six well plates (Coming, Costar #3506) one day before use in experiments, and were starved in DMEM without fetal bovine serum for at least 3 hours before insulin stimulation. Insulin was generally used at 160 nM; occasionally it was used at 80 nM or 200 nM and no difference was noted between these concentrations in either 3T3-L1 or CHO cells. Insulin was added directly to the wells from a 100×stock. […]
Flow cytometry was done on FACScan or FACSCalibur cytometers (Becton-Dickinson). […] Median fluorescence intensities were used for quantification, since this measure of central tendency is least sensitive to outliers. For each sample, the PE and GFP fluorescence specifically attributable to the presence of the GLUT4 reporter were determined by subtracting background fluorescences, measured using control unstained cells and cells not expressing the reporter, respectively. […] The ratio of fluorescence intensities plotted on the vertical axes of many figures is a relative, not absolute, measure of the proportion of GLUT4 at the cell surface. […] This consisted of calculating (0.25ra1—0.5rc+0.25rc+1), where r is the ratio of specific fluorescences for timepoint t. This calculated value was used for timepoints t=2 to ten−1, where n is the total number of timepoints. For the last time point t=n, (0.33rc1+0.67r1) was calculated. […]

[4] = test system: GLUT4 at the cell surface of adipocytes; conditions: <10% in the absence of insulin; cited from earlier work
[5] = test system: GLUT4 reporter in AML12 hepatocyte cell line; assay: GLUT4 reporter translocation in AML12 hepatocyte cell line; format: cell-based; conditions: AML12 cells; data not shown
[6] = test system: GLUT4 in the plasma membrane fraction of 3T3-L1 cells; assay: Subcellular fractionation and immunoblotting of GLUT4 in plasma membrane fraction, 3T3-L1 cells; format: cell-based, murine
Excerpt: Four 10 cm plates of 3T3-L1 adipocytes were used per condition to isolate low density microsomal and plasma membrane fractions for FIG. 17B. Eight and ten plates per condition were used to isolate low density microsomes for analysis by sucrose density gradient centrifugation (FIG. 17C) and in vesicle immunopurification experiments (FIG. 17D), respectively. Five plates of adipocytes and ten plates of preadipocytes were used per condition in experiments presented in FIGS. 19B and 20B, respectively. For experiments presented in FIGS. 17B and 17D cells were serum starved overnight, treated with the presence or absence of insulin (160 nM, 10 min.), then transferred to 4° C. and washed with cold PBS++. For the vesicle immunopurification (FIG. 17D) cells were starved overnight, then transferred to 4° C. and washed with cold PBS++ without insulin stimulation. For kinetic studies (FIGS. 19B), 480 nM insulin was used (added from a prewarmed 3×stock) in order to maximally and simultaneously stimulate all of the cells on each 10 cm dish. Cell were transferred to 4° C. and washed with cold PBS++ at the indicated times. In all cases, cells were next washed once with cold 250 mM sucrose, 10 mM Tris pH 7.4, 0.5 mM EDTA (Buffer A). Cells were resuspended by scraping in cold Buffer A with Complete protease inhibitors (Roche), then homogenized using 16 strokes (4 plates) or 25 strokes (8 plates) in a Dounce-type teflon tissue grinder (Kontes #22, VWR). All subsequent steps were performed at 4° C. […]
The supernatant from the initial centrifugation was recentrifuged at 19,000 rpm in an SS-34 rotor (43,000×g) for 30 minutes. […] Equal volumes of each fraction were analyzed by SDS-PAGE and immunoblotting, and the total protein content in each fraction was determined using the micro-BCA kit (Pierce). In experiments where LDM and PM fractions were analyzed directly (without sedimentation of the LDM), total protein content was first determined and then equal amounts of protein were analyzed by SDS-PAGE and immunoblotting.

[7] = 3T3-L1 preadipocytes and adipocytes
[8] = all days of 3T3-L1 differentiation, 80 nM insulin

Molecule: CO[C@H]1C[C@@H]2CC[C@@H](C)[C@@](O)(O2)C(=O)C(=O)N2CCCC[C@H]2C(=O)O[C@H]([C@H](C)C[C@@H]2CC[C@@H](O)[C@H](OC)C2)CC(=O)[C@H](C)/C=C(\C)[C@@H](O)[C@@H](OC)C(=O)[C@H](C)C[C@H](C)/C=C/C=C/C=C/1C [rapamycin, reference compound]
- change in amount of GLUT4 reporter protein (GFP fluorescence) ([1]; CHO cells, after rapamycin treatment, data not shown): ≤ 10%
- decrease in amount of GLUT4 reporter per cell (GFP fluorescence) ([2]; 3T3-L1 adipocytes, after rapamycin treatment, data not shown): ≤ 10%

Molecule: insulin
- time at which steady-state level of cell surface GLUT4 is reached ([1]; CHO cells): about 15 minute
- time of peak plasma membrane GLUT4 after insulin addition ([1]; CHO cells): about 5 minute
- peak fraction of GLUT4 at the cell surface relative to unstimulated cells ([1]; CHO cells cultured in DMEM): 5.5 fold
- time of peak GLUT4 externalization after insulin addition ([1]; CHO cells cultured in DMEM): four to five
- time to steady-state after insulin addition ([1]; CHO cells cultured in DMEM): twenty
- part of the increase eliminated in the subsequent decrease ([1]; CHO cells cultured in DMEM, several experiments): 50% to 60
- overshoot of the final, steady-state proportion of GLUT4 at the cell surface ([1]; CHO cells cultured in F12 medium): no overshoot
- increase in plasma membrane GLUT4 ([1]; CHO cells, peak after insulin addition): about 5 fold
- shift of the population upward along the PE (myc) axis ([1]; confluent CHO cells expressing the GLUT4 reporter, FIG. 17F): ~5 fold
- increase in the proportion of GLUT4 at the cell surface [3]: twofold
- proportion of GLUT4 at the cell surface in the presence of insulin [4]: 35-50%
- insulin-stimulated translocation of the GLUT4 reporter [5]: minimal translocation
- overshoot of the steady-state response [5]: no overshoot
- increases in the plasma membrane fraction (insulin/basal) ([6]; 3T3-L1 adipocytes, native GLUT4 and reporter protein, insulin 160 nM, 10 min, densitometry of several experiments): 5- to 10 fold
- time of peak response of GLUT4 reporter in the PM fraction after insulin addition ([6]; 3T3-L1 preadipocytes expressing the GLUT4 reporter): 8 min
- time of peak GLUT4 in the PM fraction after insulin addition ([6]; endogenous GLUT4, uninfected 3T3-L1 adipocytes, 480 nM insulin): 7 min
- subsequent decrease to steady-state, of peak response ([2]; 3T3-L1 adipocytes, FIG. 19A): ~20%
- peak response over basal ([2]; 3T3-L1 adipocytes, average of Day 8 and 10, FIG. 19A): 5.4 fold
- time at which steady-state level of cell surface GLUT4 is reached [2, 7]: about 15 minute
- time of peak plasma membrane GLUT4 after insulin addition [2, 7]: about 5 minute
- increase in plasma membrane GLUT4 ([2]; 3T3-L1 preadipocytes and adipocytes, peak after insulin addition): about 5 fold
- increase in cell-surface GLUT4 ([2]; 3T3-L1 preadipocytes, 5 minutes after insulin addition): fourfold
- fall of the fraction of GLUT4 on the plasma membrane after the peak [2, 8]: 20% to 40
- time of greatest proportion of GLUT4 on the plasma membrane after insulin addition [2, 8]: four to five
- time to steady-state after insulin addition [2, 8]: 15 to 20 min
- increase in the fraction of GLUT4 present at the plasma membrane ([2]; confluent 3T3-L1 preadipocytes cultured in 10% calf serum or 10% fetal bovine serum, 5 minutes): four-fold
